“Also recorded” adds a separate entry of the source. Read-outs that look alike come from different tables or passages of the source.
Key:
[1] = regressed when marimastat was stopped; cited from earlier work
[2] = Circular dichroism spectroscopy of relaxin-2 fold and stability; type: physicochemical; conditions: for time relaxin-2 is stable: 37° C., no loss of alpha helical structure
Description: Relaxin-2 loaded PLGA microparticles (RMPs) were prepared based on the water/oil/water (w/o/w) method as described by Igartua, M., et. al., International Journal of Pharmaceutics, 1998, 169(1): 45-54 at 1.27×10-3 wt % loaded relaxin as determined by ELISA analysis. Significant optimization and tailoring of the method was required to obtain the particle. Amounts, time, temperature, mixing speed, polymer LA:GA content were all varied to identify a unique non-obvious set of conditions to prepare the polymer. […] Relaxin-2 in the relaxin-2 microparticles maintained its native secondary and tertiary structure through the w/o/w double-emulsion process. […] Additionally, relaxin-2 was stable at 37° C. over 2 months (FIG. 2, right). The relaxin-2 PLGA microparticles were prepared with batch-to-batch consistency and were resuspended in PEG-600 to reduce aggregation and flocculation, as well as to ease administration through a 23 G needle.
Two amphiphilic hydrogels were synthesized for the physical entrapment of relaxin-2 in order to control its sustained release (FIG. 6). These amphiphilic molecules melted at 95° C. and congealed when slowly cooled back to room temperature strictly from non-covalent interactions. The alkyl chain of 1 and alkyl fluoride chain of 2 allow for hydrophobic interactions between each molecule, while the trizol and thymidine moieties allow for pi-pi stacking. Lastly, the deoxyribose and glucose groups facilitate hydrogen bonding (Godeau, G., et al., Tetrahedron Letters 2010, 51: 1012-1015; Ramen, F. A. et al., Biomaterials. 2017, 145: 72-80). Together, these amphiphilic molecules create unique and stable supramolecular assemblies that are stable at 37° C. for at least two weeks. This stability feature is another novel finding and benefit to the use of the hydrogels. Three gels of each 1 and 2 were created with bovine serum albumin and relaxin-2 at different densities by dissolving each molecule in a solution of phosphate buffered saline with protein and heating to 95° C. for 30 minutes. […]

[3] = tested on: collagen build-up in the lung induced by bleomycin; conditions: cited from earlier work
[4] = cited from earlier work
[5] = tested on: cultured renal fibroblasts, epithelial cells and mesangial cells; conditions: TGF-β-induced; cited from earlier work
heart failure = conditions: 30 micrograms/kg/day for 2 days, intravenous infusion; cited from earlier work
[6] = tested on: collagen I expression in human fibroblast-like synoviocytes (HFLS); experiment: Collagen I expression in synoviocytes treated with relaxin-2 microparticles in transwells; type: cell-based
Source text: Human fibroblast-like synoviocytes (HFLS) treated with relaxin-2 microparticles in transwells allow for evaluation of the release and efficacy of released relaxin-2 at various time points. […] In the presence of relaxin-2, collagen I is expressed at 20 to 30% of the basal level at weeks 1, 3, and 4.

[7] = tested on: shoulder joint in an animal model of shoulder contracture; experiment: Histological analysis of the shoulder joint in rat contracture model; type: in vivo, rats; conditions: immobilized shoulders, FIG. 12
human fibroblasts = conditions: cited from earlier work
scleroderma = conditions: cited from earlier work
[8] = tested on: glenohumeral joint in an animal model of shoulder contracture; experiment: Range of motion in rat shoulder contracture model; type: in vivo, rats
Description: The study was approved by the Institutional Animal Care and Use Committee, and 10 Sprague-Dawley rats (250-300 g, Charles River Laboratories, Wilmington, Mass., USA) were used in the study. For each animal, torque was measured per degree, on the intact left shoulder as a function of rotation angle between 80° of internal rotation (negative values by convention) and 60° of external rotation (positive values by convention) prior to any surgical intervention (baseline). […] Therefore, torque values at 60° external rotation (τOUT) and 800 of internal rotation (τINT) were recorded for each animal. The left forelimb of each animal was immobilized using extraarticular internal fixation. Under isoflurane anesthesia, a longitudinal skin incision was made perpendicular to the scapular spine. Two No. 2-0 braided polyester sutures (Ethibond Excel, Ethicon—San Lorenzo, PR, USA) were passed between the medial border of the scapula and the humeral shaft and tightened to immobilize the shoulder joint (FIG. 1, panel A). Muscular structures were not manipulated during surgery, and the animals were allowed normal activity in their cages immediately after the procedure. After 8 weeks of immobilization, the restraining sutures were removed, and the 10 animals were divided into two groups to evaluate changes in ROM (ROM group, n=5) and joint stiffness (stiffness group, n=5). In the ROM group, changes in kinematics were longitudinally quantified in the follow-up period by measuring the ROM achieved with the TOUT and TINT measured at baseline. This was conducted to evaluate whether immobilization mediated a significant reduction in ROM. In the stiffness group, joint kinetics were examined by measuring the differences in TOUT and TINT needed to achieve the original 800 of internal rotation and 60° of external rotation, respectively. […] The baseline measurements for each group were used as internal controls to reduce the total number of animals necessary for the study. […] ROM and torque measurements were performed under general anesthesia using a device that consisted of a sensor assembly, a rotating axle, and an arm clamp. The sensor assembly contained an orientation sensor (3DM-GX3-15, MicroStrain—Williston, Vt.), as well as a reaction torque sensor (TFF400, Futek—Irvine, Calif.) secured to the axle such that the sensing axis was collinear with the center of rotation. […] In the ROM group, pre-set programmable torque values, specific for each animal and measured at baseline (TOUT and TINT), were used as input variables in order to detect changes in rotation ROM with 0.2° resolution. […] For each animal, torque was measured per degree, on the intact left shoulder as a function of rotation angle between 1000 of internal rotation and 600 of external rotation prior to any surgical intervention. […]

Compound	adverse effect in patients [1]	time relaxin-2 is stable [2]	time relaxin-2 is stable ([2]; listed as relaxin-2) [months]	secondary/tertiary structure of relaxin-2 after w/o/w double emulsion process ([2]; circular dichroism, freshly prepared vs emulsified)	collagen build-up in the lung and overall fibrosis [3]	efficacy in animals ([4]; bolus dose)	efficacy in animals ([4]; sustained dose)	fibronectin levels and degradation [5]	trial's primary endpoint of effectiveness (heart failure)	collagen I reduced to (densitometry) ([6]; after release of relaxin-2 from microparticles, FIG. 4 legend)	collagen I expression compared to untreated control ([6]; relaxin-2 released over four weeks, synoviocytes)	histology: adhesions / hallmarks of arthrofibrosis [7]	levels of collagen types I and III and fibronectin (human fibroblasts)	trial's primary endpoint of effectiveness (scleroderma; 25 micrograms/kg/day for 24 weeks, subcutaneous delivery)	adverse events (scleroderma; in vivo, sc)	internal ROM ([8]; intravenous injection at a much greater dose)	internal ROM ([8]; mIA relaxin-2 5 x 2 ug/kg every other day, or single intraarticular RMP approx. 10 ug/kg, follow-up 8 weeks)	internal ROM ([8]; mIA relaxin-2 5 x 2 ug/kg every other day, or single intraarticular RMP approx. 10 ug/kg, follow-up 8 weeks, listed as relaxin-2)	internal ROM ([8]; singular articular injection)
CNC(=O)[C@@H](NC(=O)[C@H](CC(C)C)[C@H](O)C(=O)NO)C(C)(C)C [marimastat]	developed shoulder contractures	–	–	–	–	–	–	–	–	–	–	–	–	–	–	–	–	–	–
Relaxin-2	–	up to 2 months	2	no change; also recorded: unaffected by the double emulsion process	decreased collagen build-up	not be effective	effective	decreased TGF-β-induced fibronectin levels and increased fibronectin degradation	did not meet the trial's primary endpoint of effectiveness	approximately 50%	significant downregulation in collagen I expression	lacked any apparent adhesions	reduction	did not meet the trial's primary endpoint of effectiveness	declines in creatine clearance and renal adverse events	similarly constricted internal ROM compared with the untreated control group	significant increase back to healthy baseline by week 2	restoration of internal ROM to baseline measurements	similarly constricted internal ROM compared with the untreated control group

From patent US11439685B2, “Formulations for treating a fibrotic disease” (TRUSTEES OF BOSTON UNIVERSITY, priority 2020, dated 2022)
